# In patent US8119643B2, “Benzoimidazolyl-pyrazine compounds for inflammation and immune-related uses” (Synta Pharmaceuticals Corp., priority 2006, dated 2012):
# Entries after “also recorded” stand apart in the source; their conditions may differ.
# System: IL-2 production
# Assay: Inhibition of IL-2 production in PHA-activated Jurkat cells (ELISA)
# Format: cell-based
# Details: Homo sapiens, PHA 2.5 μg/mL, 20 hours, IL-2 ELISA
# Description: Jurkat cells were placed in a 96 well plate (0.5 million cells per well in 1% FBS medium) then a test compound of this invention was added at different concentrations. After 10 minutes, the cells were activated with PHA (final concentration 2.5 μg/mL) and incubated for 20 hours at 37° C. under CO2. The final volume was 200 μL. Following incubation, the cells were centrifuged and the supernatants were collected and stored at −70° C. prior to assaying for IL-2 production. A commercial ELISA kit (IL-2 Eli-pair, Diaclone Research, Besancon, France) was used to detect production of IL-2, from which dose response curves were obtained. The IC50 value was calculated as the concentration at which 50% of maximum IL-2 production after stimulation was inhibited versus a non-stimulation control.
row,Structure (SMILES),IC50
1,"COc1ccc2c(c1)nc(C(F)(F)F)n2-c1cnc(NC(=O)c2c(F)cccc2F)cn1 [Compound 1, 2,6-Difluoro-N-[5-(5-methoxy-2-trifluoromethyl-benzoimidazol-1-yl)-pyrazin-2-yl]-benzamide]",6 nM
2,"COc1ccc2c(c1)nc(C(F)(F)F)n2-c1cnc(NC(=O)c2ccc(OC)c(OC)c2)cn1 [Compound 126, 3,4-Dimethoxy-N-[5-(5-methoxy-2-trifluoromethyl-benzoimidazol-1-yl)-pyrazin-2-yl]-benzamide]",> 1000 nM
3,"COc1ccc(C(=O)Nc2cnc(-n3c(C(F)(F)F)nc4cc(OC)ccc43)cn2)c(F)c1 [Compound 127, 2-Fluoro-4-methoxy-N-[5-(5-methoxy-2-trifluoromethyl-benzoimidazol-1-yl)-pyrazin-2-yl]-benzamide]",105 nM
4,"COc1ccc2c(c1)nc(C(F)(F)F)n2-c1cnc(NC(=O)c2cccc(OC)c2OC)cn1 [Compound 128, 2,3-Dimethoxy-N-[5-(5-methoxy-2-trifluoromethyl-benzoimidazol-1-yl)-pyrazin-2-yl]-benzamide]",187 nM
5,"COc1cc(OC)cc(C(=O)Nc2cnc(-n3c(C(F)(F)F)nc4cc(OC)ccc43)cn2)c1 [Compound 129, 3,5-Dimethoxy-N-[5-(5-methoxy-2-trifluoromethyl-benzoimidazol-1-yl)-pyrazin-2-yl]-benzamide]",> 1000 nM
6,"COc1ccc2c(c1)nc(C(F)(F)F)n2-c1cnc(NC(=O)c2cc(Br)ccc2F)cn1 [Compound 130, 5-Bromo-2-fluoro-N-[5-(5-methoxy-2-trifluoromethyl-benzoimidazol-1-yl)-pyrazin-2-yl]-benzamide]",130 nM
7,"CCCCCc1ccc(C(=O)Nc2cnc(-n3c(C(F)(F)F)nc4cc(OC)ccc43)cn2)cc1 [Compound 131, N-[5-(5-Methoxy-2-trifluoromethyl-benzoimidazol-1-yl)-pyrazin-2-yl]-4-pentyl-benzamide]",331 nM
8,"COc1ccc2c(c1)nc(C(F)(F)F)n2-c1cnc(NC(=O)c2ccc(C(C)(C)C)cc2)cn1 [Compound 132, 4-tert-Butyl-N-[5-(5-methoxy-2-trifluoromethyl-benzoimidazol-1-yl)-pyrazin-2-yl]-benzamide]",> 1000 nM
9,"CCOc1ccc(C(=O)Nc2cnc(-n3c(C(F)(F)F)nc4cc(OC)ccc43)cn2)cc1 [Compound 133, 4-Ethoxy-N-[5-(5-methoxy-2-trifluoromethyl-benzoimidazol-1-yl)-pyrazin-2-yl]-benzamide]",> 1000 nM
10,"COc1ccc2c(c1)nc(C(F)(F)F)n2-c1cnc(NC(=O)c2ccc(Cl)cc2OC)cn1 [Compound 134, 4-Chloro-2-methoxy-N-[5-(5-methoxy-2-trifluoromethyl-benzoimidazol-1-yl)-pyrazin-2-yl]-benzamide]",> 1000 nM
11,"COc1ccc2c(c1)nc(C(F)(F)F)n2-c1cnc(NC(=O)c2cccc([N+](=O)[O-])c2C)cn1 [Compound 135, N-[5-(5-Methoxy-2-trifluoromethyl-benzoimidazol-1-yl)-pyrazin-2-yl]-2-methyl-3-nitro-benzamide]",103 nM
12,"COc1ccc2c(c1)nc(C(F)(F)F)n2-c1cnc(NC(=O)c2cc(OC)c(OC)cc2OC)cn1 [Compound 136, 2,4,5-Trimethoxy-N-[5-(5-methoxy-2-trifluoromethyl-benzoimidazol-1-yl)-pyrazin-2-yl]-benzamide]",> 1000 nM
13,"COc1ccc2c(c1)nc(C(F)(F)F)n2-c1cnc(NC(=O)c2ccc(C(F)(F)F)cc2)cn1 [Compound 137, N-[5-(5-Methoxy-2-trifluoromethyl-benzoimidazol-1-yl)-pyrazin-2-yl]-4-trifluoromethyl-benzamide]",714 nM
14,"COc1ccc2c(c1)nc(C(F)(F)F)n2-c1cnc(NC(=O)c2ccc(F)cc2Br)cn1 [Compound 138, 2-Bromo-4-fluoro-N-[5-(5-methoxy-2-trifluoromethyl-benzoimidazol-1-yl)-pyrazin-2-yl]-benzamide]",83 nM

# The next lines start with the values.
row,IC50,Structure (SMILES)
1,> 1000 nM,"COc1ccc2c(c1)nc(C(F)(F)F)n2-c1cnc(NC(=O)c2ccc(Cl)c([N+](=O)[O-])c2)cn1 [Compound 139, 4-Chloro-N-[5-(5-methoxy-2-trifluoromethyl-benzoimidazol-1-yl)-pyrazin-2-yl]-3-nitro-benzamide]"
2,192 nM,"COc1ccc2c(c1)nc(C(F)(F)F)n2-c1cnc(NC(=O)c2ccc(C)c([N+](=O)[O-])c2)cn1 [Compound 140, N-[5-(5-Methoxy-2-trifluoromethyl-benzoimidazol-1-yl)-pyrazin-2-yl]-4-methyl-3-nitro-benzamide]"
3,> 1000 nM,"COc1ccc2c(c1)nc(C(F)(F)F)n2-c1cnc(NC(=O)c2ccc(C(C)C)cc2)cn1 [Compound 141, 4-Isopropyl-N-[5-(5-methoxy-2-trifluoromethyl-benzoimidazol-1-yl)-pyrazin-2-yl]-benzamide]"
4,324 nM,"COc1ccc2c(c1)nc(C(F)(F)F)n2-c1cnc(NC(=O)c2cccc(C)c2[N+](=O)[O-])cn1 [Compound 142, N-[5-(5-Methoxy-2-trifluoromethyl-benzoimidazol-1-yl)-pyrazin-2-yl]-3-methyl-2-nitro-benzamide]"
5,178 nM,"COc1ccc2c(c1)nc(C(F)(F)F)n2-c1cnc(NC(=O)c2cc(F)c(F)cc2F)cn1 [Compound 143, 2,4,5-Trifluoro-N-[5-(5-methoxy-2-trifluoromethyl-benzoimidazol-1-yl)-pyrazin-2-yl]-benzamide]"
6,> 1000 nM,"COc1ccc2c(c1)nc(C(F)(F)F)n2-c1cnc(NC(=O)c2ccc(C(F)(F)F)cc2OC)cn1 [Compound 144, 2-Methoxy-N-[5-(5-methoxy-2-trifluoromethyl-benzoimidazol-1-yl)-pyrazin-2-yl]-4-trifluoromethyl-benzamide]"
7,99 nM,"COc1ccc2c(c1)nc(C(F)(F)F)n2-c1cnc(NC(=O)c2ccccc2C(F)(F)F)cn1 [Compound 145, N-[5-(5-Methoxy-2-trifluoromethyl-benzoimidazol-1-yl)-pyrazin-2-yl]-2-trifluoromethyl-benzamide]"
8,18 nM,"COc1ccc2c(c1)nc(C(F)(F)F)n2-c1cnc(NC(=O)c2cc([N+](=O)[O-])ccc2C)cn1 [Compound 146, N-[5-(5-Methoxy-2-trifluoromethyl-benzoimidazol-1-yl)-pyrazin-2-yl]-2-methyl-5-nitro-benzamide]"
9,> 1000 nM,"COc1ccc2c(c1)nc(C(F)(F)F)n2-c1cnc(NC(=O)c2ccc([N+](=O)[O-])c(OC)c2)cn1 [Compound 147, 3-Methoxy-N-[5-(5-methoxy-2-trifluoromethyl-benzoimidazol-1-yl)-pyrazin-2-yl]-4-nitro-benzamide]"
10,98 nM,"COc1ccc2c(c1)nc(C(F)(F)F)n2-c1cnc(NC(=O)c2cc(Cl)ccc2F)cn1 [Compound 148, 5-Chloro-2-fluoro-N-[5-(5-methoxy-2-trifluoromethyl-benzoimidazol-1-yl)-pyrazin-2-yl]-benzamide]"
11,88 nM,"COc1ccc2c(c1)nc(C(F)(F)F)n2-c1cnc(NC(=O)c2ccc(F)c(F)c2F)cn1 [Compound 149, 2,3,4-Trifluoro-N-[5-(5-methoxy-2-trifluoromethyl-benzoimidazol-1-yl)-pyrazin-2-yl]-benzamide]"
12,126 nM,"COc1ccc2c(c1)nc(C(F)(F)F)n2-c1cnc(NC(=O)c2ccc([N+](=O)[O-])cc2F)cn1 [Compound 150, 2-Fluoro-N-[5-(5-methoxy-2-trifluoromethyl-benzoimidazol-1-yl)-pyrazin-2-yl]-4-nitro-benzamide]"
13,27 nM,"COc1ccc2c(c1)nc(C(F)(F)F)n2-c1cnc(NC(=O)c2cc(F)ccc2Cl)cn1 [Compound 151, 2-Chloro-5-fluoro-N-[5-(5-methoxy-2-trifluoromethyl-benzoimidazol-1-yl)-pyrazin-2-yl]-benzamide]"
14,> 1000 nM,"COc1ccc2c(c1)nc(C(F)(F)F)n2-c1cnc(NC(=O)c2cc(Cl)ccc2OC)cn1 [Compound 152, 5-Chloro-2-methoxy-N-[5-(5-methoxy-2-trifluoromethyl-benzoimidazol-1-yl)-pyrazin-2-yl]-benzamide]"
15,15 nM,"O=C(Nc1cnc(-n2c(C(F)(F)F)nc3cc(-c4ncco4)ccc32)cn1)c1c(F)cccc1F [Compound 153, 2,6-Difluoro-N-[5-(5-oxazol-2-yl-2-trifluoromethyl-benzoimidazol-1-yl)-pyrazin-2-yl]-benzamide]"

# System: Delayed-Type Hypersensitivity (DTH) reaction
# Assay: Inhibition of delayed-type hypersensitivity (DTH) reaction in rats
# Format: in vivo, Lewis rats
# Details: rat DTH, 15 mg/kg orally at −2, +3, +9 hr, 24 hr after OVA challenge, relative to vehicle-treated group
# Description: Lewis rats (n=7 each group) were sensitized with chicken ovalbumin (OVA; Sigma, A5503) and complete Freund's adjuvant (CFA; Sigma F5881) was injected into tail base by s.c. on day 0. On day 7, the animals were challenged with ovalbumin (OVA) on their right ears.
# Compounds 1 and 10 were prepared in vehicle solution (20% Vitamin E TPGS and 80% PEG-8).
# Female Lewis rats, 6-8 weeks of age, were obtained from Charles River Laboratories and permitted to acclimate for one week prior to experimental procedures. Rodents were allowed water and food ad libitum. Animals were housed in accordance with the Institutional Animal Care and Use Committee (IACUC), and experiments were performed in compliance with IACUC guidelines.
# Rat ears were measured with a dial thickness gauge (Mitutoyo gauge #8, Mitutoyo, USA). The swelling response was calculated by subtracting the ear thickness before challenge (baseline) from that of the same ear after challenge. To measure the ear weight, both left and right ears of euthanized rats were punched out with cork holer, the ear weight change was calculated by subtracting the saline-treated left ear weight from that of the OVA-challenged right ear weight.
# Delayed-type hypersensitivity is an in vivo T cell-dependent immune response manifested as an inflammatory reaction that reaches peak intensity 24 hr after OVA challenge. To determine the immunosuppressive effect of Compounds 1 and 10 in the rat DTH reaction, groups of rats (n=7) were administered with either vehicle, Compound 1 or Compound 10, orally three times, starting 2 hr before ear challenge, and 3 and 9 hr after ear challenge.
Structure (SMILES),Inhibition of gross change (%) Ear thickness (mm),Inhibition of gross change (%) Ear weight (mg)
"COc1ccc2c(c1)nc(C(F)(F)F)n2-c1cnc(NC(=O)c2c(F)cccc2F)cn1 [Compound 1, 2,6-Difluoro-N-[5-(5-methoxy-2-trifluoromethyl-benzoimidazol-1-yl)-pyrazin-2-yl]-benzamide]",77%,79%

# Same assay, conditions: rat DTH, compared to vehicle alone, FIGS. 1 and 2
row,Structure (SMILES),effect on ear weight after ovalbumin challenge
1,"COc1ccc2c(c1)nc(C(F)(F)F)n2-c1cnc(NC(=O)c2c(F)cccc2F)cn1 [Compound 1, 2,6-Difluoro-N-[5-(5-methoxy-2-trifluoromethyl-benzoimidazol-1-yl)-pyrazin-2-yl]-benzamide]",decreased ear weight; also recorded: significantly inhibited

# Same assay, conditions: rat DTH, compared to vehicle alone, FIGS. 3 and 4
row,Structure (SMILES),effect on ear thickness after ovalbumin challenge
1,"COc1ccc2c(c1)nc(C(F)(F)F)n2-c1cnc(NC(=O)c2c(F)cccc2F)cn1 [Compound 1, 2,6-Difluoro-N-[5-(5-methoxy-2-trifluoromethyl-benzoimidazol-1-yl)-pyrazin-2-yl]-benzamide]",decreased ear thickness; also recorded: significantly inhibited
